According to article PMC9416257, “Design, Synthesis and Preliminary Evaluation of the Cytotoxicity and Antibacterial Activity of Novel Triphenylphosphonium Derivatives of Betulin” (Molecules, 2022):
Where two headings read alike, the source gives them in different places.

Assays:
[1] = tested on: HCT 116 (colorectal carcinoma cell line); test: Cytotoxicity, CCK-8 cell viability assay; format: cell-based; settings: Homo sapiens, read-out: Activity IC50, HCT 116
Procedure: (§1) The obtained new molecular hybrids of BN were screened in order to initially investigate their cytotoxicity as well as examine the relationships between the structure and biological effect. The common element of all of the tested compounds was the presence of a lipophilic moiety (CH2)nTPP^⊕ (n = 3, 4, 5). The research was conducted on two groups of compounds: 28-TPP^⊕ BN and 3,28-bisTPP^⊕ BN. Their cytotoxicity was investigated on two cancer cell lines: HCT 116 (colorectal carcinoma cell line) and MCF-7 (human breast adenocarcinoma cell line). The proliferation of tumor cells treated with the tested compounds (7 and 9) at 12.5–3.125 µM concentrations were determined after 24 h of incubation. Additionally, all compounds were tested against the NHDF cell line (Normal Human Dermal Fibroblast cells) to assess their safety. Half-maximal inhibitory concentrations (IC50) of triphenylphosphonium analogs of BN were determined using a CCK-8 assay and are summarized in Table 2.
(§2) The human colorectal carcinoma cell line (HCT 116) and the human breast adenocarcinoma cell line (MCF-7) cells were purchased from the American Type Culture Collection (ATCC, Manassas, VA, USA). The Normal Human Dermal Fibroblast (NHDF) cells were purchased from Lonza (Dermal Fibroblasts, Lonza, Poland). All cells were cultured under standard conditions at 37 °C in a humidified atmosphere at 5% CO2 in DMEM/F12 medium (PAA) supplemented with 10% of heat-inactivated fetal bovine serum (FBS, EURx, Gdansk, Poland) and antibiotics (penicillin/streptomycin).
(§3) Cells were seeded at 7500 (HCT 116) or 10,000 (MCF-7, NHDF) cells/well in 96-well plates. After 24 h, the culture medium was removed and 100 µL of fresh medium containing the test compounds at 0–12.5 µM concentrations was added to the culture wells. The test compounds were dissolved in DMSO to obtain a stock solution with a concentration of 5 mM (betulin) or 10 mM (other test compounds). The stock solution was diluted with the fresh culture medium to the desired concentration. Controls were cells grown in medium without the addition of test compounds. After 24 h of incubation with the test compounds, 10 µL of CCK-8 reagent (Bimake, Houston, TX, USA) was added to each well. After 2 h, the absorbance of the samples was measured at a wavelength of 450 nm using a microplate reader (Epoch, BioTek Instruments, Winooski, VT, USA). The determinations were conducted in at least three biological replications (each biological replication contained 3 technical replications). The cell viability rate was calculated using CalcuSyn software (version 2.0, Biosoft, Cambridge, UK).

[2] = tested on: MCF-7 (human breast adenocarcinoma cell line); test: Cytotoxicity, CCK-8 cell viability assay; format: cell-based; settings: read-out: Activity IC50, MCF-7
Procedure: as §1, §2
as §3, with “After 24 h, the culture medium was removed and 100 µL of fresh medium containing the test compounds at 0–12.5 µM concentrations was added to the culture wells.” left out

[3] = tested on: NHDF (Normal Human Dermal Fibroblast cells); test: Cytotoxicity, CCK-8 cell viability assay (safety on normal cells); format: cell-based; settings: read-out: Activity IC50, NHDF
Procedure: as §1, §2, §3

[4] = tested on: S. aureus ATCC 25923; test: Antibacterial assay, optical density of culture in TSB; format: cell-based, Staphylococcus aureus; settings: 18 h; for Difference between optical density before and after culture, S. aureus ATCC 25923: 37 °C; for Inhibition of growth of S. aureus ATCC 25923 (in words): 250 µM
Procedure: (§4) Investigations were carried out using different concentrations of solutions from 25 to 250 µM. A 25 µM concentration of the tested derivatives was not enough to inhibit the growth of […]. When the concentration of analogs 7d–7f and 9a–9c increased to 200 µM, the growth of S. aureus ATCC 25923 and S. epidermidis ATCC 12228 was inhibited. Furthermore, the optical density of all compounds remained unchanged after 18 h of bacteria culture. In the case of analogs 7a–7c, the optical density values were between 0.9 and 2.2 when they were cultured with S. aureus ATCC 25923. The bacterial growth was slower compared to the control sample (TSB-culture medium). […] In the case of analog 7c, the optical density increased up to […] after 18 h of the sample culture with both kinds of Gram-positive bacteria. In contrast, the reference sample’s (TSB) optical density increased to 7.5 for S. aureus ATCC 25923, and 4.9 for S. epidermidis ATCC 12228 after 18 h of bacteria culture. […] All of the analog values of the measured optical density were similar to that of the reference sample (5.0–5.1, Table 3).
(§5) Antibacterial analysis was performed using the S. aureus ATCC 25923, S. epidermidis ATCC 12228, and Escherichia coli ATCC 25922 bacteria strains. The test compounds were dissolved in DMSO to obtain a stock solution with a concentration of 5 mM (betulin) or 10 mM (other test compounds). The stock solution was diluted with water to the desired concentration (25–250 µM). Then, 1 mL of the investigated solutions was mixed with 1 mL of culture medium (TSB, Biomaxima, Lublin, Poland) in a sterile glass tube. The initial concentration of bacteria was around 5 × 10^6 CFU/mL. The concentration of bacteria was measured using an optical densitometer before and after 18 h of bacteria culture in glass tubes at 37 °C (incubator POL-EKO, Wodzislaw Slaski, Poland). The investigations were repeated for three independent samples. The control sample was the culture medium without any supplementation.

[5] = tested on: S. epidermidis ATCC 12228; test: as above; format: cell-based, Staphylococcus epidermidis; settings: 18 h; for Difference between optical density before and after culture, S. epidermidis ATCC 12228: 37 °C; for Inhibition of growth of S. epidermidis ATCC 12228 (in words): 250 µM
Procedure: as §4, §5

[6] = tested on: Escherichia coli ATCC 25922; test: as above; format: cell-based; settings: 37 °C, 18 h; note: key: 0: no difference between samples after 18 h of bacteria culture (bacteria grow was inhibited); neg: negative results (analog BN did not inhibit bacteria growing)
Procedure: as §4, §5

[7] = HCT-116, CCK-8 assay, incubation time 24 h, mean ± SD (n = 3)
[8] = MCF7, CCK-8 assay, incubation time 24 h, mean ± SD (n = 3)
[9] = CCK-8 assay, incubation time 24 h, mean ± SD (n = 3)

SMILES	IC50 [1, 7]	IC50 [2, 8]	IC50 [3, 9]	Difference between optical density before and after culture, S. aureus ATCC 25923 ([4]; 200 μM)	Difference between optical density before and after culture, S. aureus ATCC 25923 ([4]; 250 μM)	Inhibition of growth of S. aureus ATCC 25923 (in words) [4]	Difference between optical density before and after culture, S. epidermidis ATCC 12228 ([5]; 200 μM)	Difference between optical density before and after culture, S. epidermidis ATCC 12228 ([5]; 250 μM)	Inhibition of growth of S. epidermidis ATCC 12228 (in words) [5]	Difference between optical density before and after culture, Escherichia coli ATCC 25922 ([6]; 200 μM)	Difference between optical density before and after culture, Escherichia coli ATCC 25922 ([6]; 250 μM)	IC50 ([1]; HCT-116, 24 h)	IC50 ([2]; MCF7, 24 h)	IC50 ([3]; 24 h)
C=C(C)[C@@H]1CC[C@]2(COC(=O)CCC(=O)OCCC[P+](c3ccccc3)(c3ccccc3)c3ccccc3)CC[C@]3(C)C(CCC4[C@@]5(C)CC[C@H](OC(C)=O)C(C)(C)C5CC[C@]43C)C12 (some centres unmarked) [7a, 3-O-Acetyl-28-O’-(3’-(3"-triphenylphosphoniopropyloxycarbonyl)propanoyl)betulin bromide]	5.56 ± 0.28 µM	13.7 ± 0.54 µM	9.68 ± 0.27 µM	0.9 McFarland’s scale (CFU/mL)	0	greatly inhibited the growth	neg	0	greatly inhibited the growth	neg	neg			
C=C(C)[C@@H]1CC[C@]2(COC(=O)CCC(=O)OCCCC[P+](c3ccccc3)(c3ccccc3)c3ccccc3)CC[C@]3(C)C(CCC4[C@@]5(C)CC[C@H](OC(C)=O)C(C)(C)C5CC[C@]43C)C12 (some centres unmarked) [7b, 3-O-Acetyl-28-O’-(3’-(4"-triphenylphosphoniobutyloxycarbonyl)propanoyl)betulin bromide]	5.77 ± 0.27 µM	14.3 ± 0.38 µM	10.7 ± 0.25 µM	2.2 McFarland’s scale (CFU/mL)	0	greatly inhibited the growth	neg	0	greatly inhibited the growth	neg	neg			
C=C(C)[C@@H]1CC[C@]2(COC(=O)CCC(=O)OCCCCC[P+](c3ccccc3)(c3ccccc3)c3ccccc3)CC[C@]3(C)C(CCC4[C@@]5(C)CC[C@H](OC(C)=O)C(C)(C)C5CC[C@]43C)C12 (some centres unmarked) [7c, 3-O-Acetyl-28-O’-(3’-(5"-triphenylphosphoniopentyloxycarbonyl)propanoyl)betulin bromide]	6.48 ± 0.04 µM	15.5 ± 0.92 µM	11.3 ± 0.53 µM	1.0 McFarland’s scale (CFU/mL)			neg			neg	neg			
C=C(C)[C@@H]1CC[C@]2(COC(=O)CC(C)(C)C(=O)OCCC[P+](c3ccccc3)(c3ccccc3)c3ccccc3)CC[C@]3(C)C(CCC4[C@@]5(C)CC[C@H](OC(C)=O)C(C)(C)C5CC[C@]43C)C12 (some centres unmarked) [7d, 3-O-Acetyl-28-O’-(3’,3’-dimethyl-3’-(3"-triphenylphosphoniopropyloxycarbonyl)propanoyl)betulin bromide]				0	0		0	0		neg	neg			
C=C(C)[C@@H]1CC[C@]2(COC(=O)CC(C)(C)C(=O)OCCCC[P+](c3ccccc3)(c3ccccc3)c3ccccc3)CC[C@]3(C)C(CCC4[C@@]5(C)CC[C@H](OC(C)=O)C(C)(C)C5CC[C@]43C)C12 (some centres unmarked) [7e, 3-O-Acetyl-28-O’-(3’,3’-dimethyl-3’-(4"-triphenylphosphoniobutyloxycarbonyl)propanoyl)betulin bromide]				0	0		0	0		neg	neg			
C=C(C)[C@@H]1CC[C@]2(COC(=O)CC(C)(C)C(=O)OCCCCC[P+](c3ccccc3)(c3ccccc3)c3ccccc3)CC[C@]3(C)C(CCC4[C@@]5(C)CC[C@H](OC(C)=O)C(C)(C)C5CC[C@]43C)C12 (some centres unmarked) [7f, 3-O-Acetyl-28-O’-(3’,3’-dimethyl-3’-(5"-triphenylphosphoniopentyloxycarbonyl)propanoyl)betulin bromide]	12.7 ± 0.89 µM	50.5 ± 3.92 µM	10 ± 0.48 µM	0	0		0	0		neg	neg			
C=C(C)[C@@H]1CC[C@]2(COC(=O)CCC(=O)OCCC[P+](c3ccccc3)(c3ccccc3)c3ccccc3)CC[C@]3(C)C(CCC4[C@@]5(C)CC[C@H](OC(=O)CCC(=O)OCCC[P+](c6ccccc6)(c6ccccc6)c6ccccc6)C(C)(C)C5CC[C@]43C)C12 (some centres unmarked) [9a, 3,28-O,O′-Bis(3’-(3"-triphenylphosphoniopropyloxycarbonyl)propanoyl)betulin bromide]				0	0		0	0		neg	neg	6.32 ± 0.27 µM	31.3 ± 3.02 µM	5.91 ± 0.33 µM
